According to patent publication US20150148422A1, “METHOD FOR […] AND METHOD FOR CLEANING SURFACES” (JSK Capital, LLC, priority 2012, published 2015):
Where two headings read alike, the source gives them in different places.

What was measured:
[1] = tested on: Aspergillus brasiliensis (ATCC 16404); test: USP <51> antimicrobial effectiveness (challenge) test, A. brasiliensis; format: cell-based; settings: for Log A brasiliensis: initial inoculum 2.6 × 10^5 cfu/mL = 5.41; for Log Change (A brasiliensis), decrease in log 10 of organism from initial spike: initial log 5.41
Description: (§1) See Antimicrobial Test Laboratories description of USP 51 Test.

[2] = tested on: Escherichia coli (ATCC 8739); test: USP <51> antimicrobial effectiveness (challenge) test, E. coli; format: cell-based; settings: for Log E. coli: initial inoculum 5.0 × 10^5 cfu/mL = 5.70; for Log Change (E. coli), decrease in log 10 of organism from initial spike: initial log 5.70
Description: as §1

[3] = tested on: Candida albicans (ATCC 10231); test: USP <51> antimicrobial effectiveness (challenge) test, C. albicans; format: cell-based; settings: for Log C albicans: initial inoculum 9.4 × 10^5 cfu/mL = 5.97; for Log Change (C albicans), decrease in log 10 of organism from initial spike: initial log 5.97
Description: as §1

[4] = tested on: Staphylococcus aureus (ATCC 6538P); settings: initial log 5.34
Description: USP 51 challenges (inoculates) a formula with 5 different microorganisms, separately. Three bacteria and two fungal strains are used for each USP 51 test. Test microorganisms are grown in liquid or on solid medium, depending on the microorganism. Microorganisms used for a USP 51 test include: 1) Candida albicans (a yeast which is a form of fungus), 2) Aspergillus brasiliensis (a filamentous mold and also a fungus), 3) Escherichia coli (a bacterium better known as “E. coli”), 4) Pseudomonas aeruginosa (a bacterium that is problematic industrially), and 5) Staphylococcus aureus (a bacterium known as “Staph”).
The test microorganisms are either harvested by centrifugation from broth culture or by washing surface growth from a solid medium into a sterile vessel. The concentrations of test microorganisms are standardized by re-suspending harvested microorganisms in sterile saline to yield ˜1×10̂8 CFU/ml. […] A recovery analysis is performed to verify that microorganisms present in a sample can be adequately recovered and enumerated using the chosen dilution and plating scheme. A sufficient volume of test product (typically 10 ml) is distributed into each of 5 separate containers, and each container is inoculated with a separate test microorganism (mentioned above). The initial concentration of viable microorganisms in the test product is determined by standard dilution and plate count methods. […] The microorganism concentration at each interval is compared to the initial concentration, and then preservative effectiveness is determined based upon USP guidelines.
Here, a USP 51 test was conducted with the following parameters. For preparatory method suitability, validated recovery of organisms using TSB+IAA broth.

Pseudomonas aeruginosa = test: USP <51> antimicrobial effectiveness (challenge) test, P. aeruginosa; format: cell-based; settings: for Log P. aeruginosa: initial inoculum 2.9 × 10^5 cfu/mL = 5.46; for Log Change (P. aeruginosa), decrease in log 10 of organism from initial spike: initial log 5.46
Description: as §1

urea sulfate
Log A brasiliensis ([1]; Day 1): <1 Log
Log Change (A brasiliensis), decrease in log 10 of organism from initial spike ([1]; Day 1): >*4.97 log 10
Log A brasiliensis ([1]; Day 7): <1 Log
Log Change (A brasiliensis), decrease in log 10 of organism from initial spike ([1]; Day 7): >*4.97 log 10
Log A brasiliensis ([1]; Day 14): <1 Log
Log Change (A brasiliensis), decrease in log 10 of organism from initial spike ([1]; Day 14): >*4.97 log 10
Log A brasiliensis ([1]; Day 28): <1 Log
Log Change (A brasiliensis), decrease in log 10 of organism from initial spike ([1]; Day 28): >*4.97 log 10
change in the amount of Aspergillus brasiliensis ([1]; after a month): no measurable change
Log E. coli ([2]; Day 1): <1 Log
Log Change (E. coli), decrease in log 10 of organism from initial spike ([2]; Day 1): >*4.70 log 10
Log E. coli ([2]; Day 7): <1 Log
Log Change (E. coli), decrease in log 10 of organism from initial spike ([2]; Day 7): >*4.70 log 10
Log E. coli ([2]; Day 14): <1 Log
Log Change (E. coli), decrease in log 10 of organism from initial spike ([2]; Day 14): >*4.70 log 10
Log E. coli ([2]; Day 28): <1 Log
Log Change (E. coli), decrease in log 10 of organism from initial spike ([2]; Day 28): >*4.70 log 10
change in the amount of Escherichia coli ([2]; after a month): no measurable change
Log C albicans ([3]; Day 1): <1 Log
Log Change (C albicans), decrease in log 10 of organism from initial spike ([3]; Day 1): >*4.97 log 10
Log C albicans ([3]; Day 7): <1 Log
Log Change (C albicans), decrease in log 10 of organism from initial spike ([3]; Day 7): >*4.97 log 10
Log C albicans ([3]; Day 14): <1 Log
Log Change (C albicans), decrease in log 10 of organism from initial spike ([3]; Day 14): >*4.97 log 10
Log C albicans ([3]; Day 28): <1 Log
Log Change (C albicans), decrease in log 10 of organism from initial spike ([3]; Day 28): >*4.97 log 10
change in the amount of Candida albicans ([3]; after a month): no measurable change
Log Change (S aureus), decrease in log 10 of organism from initial spike ([4]; Day 1): >*4.34 log 10
Log Change (S aureus), decrease in log 10 of organism from initial spike ([4]; Day 7): >*4.34 log 10
Log Change (S aureus), decrease in log 10 of organism from initial spike ([4]; Day 14): >*4.34 log 10
Log Change (S aureus), decrease in log 10 of organism from initial spike ([4]; Day 28): >*4.34 log 10
Log P. aeruginosa (Pseudomonas aeruginosa; Day 1): <1 Log
Log Change (P. aeruginosa), decrease in log 10 of organism from initial spike (Pseudomonas aeruginosa; Day 1): >*4.46 log 10
Log P. aeruginosa (Pseudomonas aeruginosa; Day 7): <1 Log
Log Change (P. aeruginosa), decrease in log 10 of organism from initial spike (Pseudomonas aeruginosa; Day 7): >*4.46 log 10
Log P. aeruginosa (Pseudomonas aeruginosa; Day 14): <1 Log
Log Change (P. aeruginosa), decrease in log 10 of organism from initial spike (Pseudomonas aeruginosa; Day 14): >*4.46 log 10
Log P. aeruginosa (Pseudomonas aeruginosa; Day 28): <1 Log
Log Change (P. aeruginosa), decrease in log 10 of organism from initial spike (Pseudomonas aeruginosa; Day 28): >*4.46 log 10
change in the amount of Pseudomonas aeruginosa (Pseudomonas aeruginosa; after a month): no measurable change
